Patent publication US8906911B2, “Chemokine receptor antagonists” (AbbVie Inc., priority 2012, dated 2014)
Where two headings read alike, the source gives them in different places.

How the values were obtained:
human CCR2B [1] = target: T1, human CCR2B (Homo sapiens (Human), UniProt P41597); assay: Inhibition of [125I]-labeled MCP-1 binding to hCCR2B (radioligand binding in CHO cells); conditions: mean Ki; [125I]-MCP-1 50 pM; CHO cells expressing human CCR2B and Gα16
Source text: CHO cells expressing human CCR2B were generated as follows. cDNA for human CCR2B (cloned from human blood) was cloned into plasmid pcDNA3.1 (from Invitrogen). The resulting plasmids were separately transfected into CHO cells expressing human Gα16 (from Molecular Devices). […] CHO cells expressing rat CCR2 were generated as follows. cDNA for rat CCR2 (cloned from rat macrophage) was cloned into plasmid pEF-flag (from Chinese Academy of Science). The resulting plasmids were transfected into CHO cells expressing human Gα16 (from […]).
Inhibition of [^125I]-Labeled MCP-1 Binding to hCCR2B
Radioligand binding assays were performed in CHO cells expressing human CCR2B and Gα16 coupling protein. All compounds were dissolved in DMSO and assays run at a final DMSO concentration of 0.5% (v/v). [^125I]-labeled human MCP-1 was purchased from PerkinElmer. Unlabelled human MCP-1 was purchased from PeproTech.
Compounds were serially diluted in DMSO before diluting into assay buffer (25 mM HEPES, pH 7.4, 5 mM MgCl2, 1 mM CaCl2, 0.5% BSA) with cryo preserved CHO cells expressing human CCR2B and the Gα16 coupling protein (30×10^3/well) and [^125I]-MCP-1 (50 pM). The reaction was incubated at room temperature for 90 minutes before transferring to GF/C filter membrane (PerkinElmer) pre-treated with 0.3% polyethyleneimine for 2 hours at 4° C. The filter membrane was washed six times with ice cold wash buffer (25 mM HEPES, pH 7.4, 5 mM MgCl2, 1 mM CaCl2, 500 mM NaCl, 0.01% (m/v) azide), dried, and sealed in a RLB sample bag (Agilent Technologies) before adding 5.0 mL Microscint 20 to each bag. Membrane was counted on Microbeta counter where background binding was determined by the presence of 100 nM MCP-1 and control total binding was determined by addition of DMSO in place of the test compound. The radioactivity values (cpm) were used to calculate the percent inhibition at a given compound concentration and the data fit to a sigmoidal curve in a semi-log plot to determine IC50 values. The corresponding Ki value is calculated as follows:
Ki=IC50/(1+[radioligand]/Kd), where [radioligand] is the concentration of the label and Kd (dissociation constant) is determined in saturation experiment with different concentrations of labeled MCP-1.

rat CCR2 = rat CCR2 (Rattus norvegicus (Rat), UniProt O55193); assay: Inhibition of native agonist (rat MCP-1)-induced intracellular calcium release, calcium flux assay in CHO cells expressing rat CCR2 and Gα16; type: cell-based; conditions: read-out: rCCR2 Kb
Method in brief: (§1)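 Compound added to Calcium 4 dye-loaded adherent cells (dye loading 60 min, 37° C., HEPES pH 7.4 buffer with probenecid), then agonist: human MCP-1 at 2 nM final for hCCR2B cells, rat MCP-1 at 4 nM final for rCCR2 cells. FLIPR fluorescence change gave IC50. Kb=IC50/(1+[agonist]/EC50). Final DMSO 0.25%.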

human CCR2B [2] = target: T1, human CCR2B; assay: Inhibition of native agonist (human MCP-1)-induced intracellular calcium release, calcium flux assay in CHO cells expressing human CCR2B and Gα16; type: cell-based; conditions: for IC50: read-out: hCCR2B IC50; for Kb: read-out: hCCR2B Kb
Method in brief: as §1

CCR2 [3] = target: CCR2 (Rattus norvegicus (Rat), UniProt O55193); conditions: direct injection of MCP-1 in the spinal cord; cited from earlier work
CCR2 [4] = conditions: in vivo; cited from earlier work

T1 sequence (P41597 other isoform, or with tags, fused parts or gaps): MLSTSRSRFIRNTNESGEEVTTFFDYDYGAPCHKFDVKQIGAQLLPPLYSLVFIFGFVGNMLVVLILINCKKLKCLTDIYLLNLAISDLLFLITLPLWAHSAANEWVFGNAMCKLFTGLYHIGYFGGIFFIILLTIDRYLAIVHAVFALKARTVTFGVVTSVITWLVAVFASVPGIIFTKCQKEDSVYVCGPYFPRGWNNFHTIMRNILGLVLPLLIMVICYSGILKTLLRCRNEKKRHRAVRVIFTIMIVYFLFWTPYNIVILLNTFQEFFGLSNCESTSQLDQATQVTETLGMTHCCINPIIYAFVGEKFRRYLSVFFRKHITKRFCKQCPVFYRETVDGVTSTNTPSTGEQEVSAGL
Sequence of rat CCR2 (O55193 whole entry): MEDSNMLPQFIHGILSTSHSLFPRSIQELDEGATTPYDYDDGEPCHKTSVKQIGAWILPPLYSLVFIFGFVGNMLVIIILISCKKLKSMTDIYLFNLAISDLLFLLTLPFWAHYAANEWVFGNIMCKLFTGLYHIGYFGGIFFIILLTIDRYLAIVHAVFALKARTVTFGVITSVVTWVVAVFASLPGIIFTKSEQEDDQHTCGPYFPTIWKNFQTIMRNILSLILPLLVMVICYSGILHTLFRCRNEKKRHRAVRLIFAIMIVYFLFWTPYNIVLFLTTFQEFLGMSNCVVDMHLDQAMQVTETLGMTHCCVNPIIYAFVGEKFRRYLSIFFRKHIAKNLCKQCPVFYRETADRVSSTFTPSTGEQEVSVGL
Sequence of CCR2 (Rattus norvegicus (Rat), UniProt O55193) (O55193 whole entry): as above

Compound	Ki (human CCR2B [1])	Kb (rat CCR2)	IC50 (human CCR2B [2])	Kb (human CCR2B [2])	IC50 (human CCR2B [2]; calcium flux, human MCP-1 2 nM)	MCP-1 induced pronociception (thermal hyperalgesia and mechanical allodynia) (CCR2 [3])	hyperalgesia induced by MCP-1 injection in the RVM (CCR2 [4])
CO[C@@H]1COCC[C@@H]1N[C@@H]1C[C@H]2CCC[C@@]2(C(=O)N2C[C@@H]3C[C@H]2CN3c2cc(C(F)(F)F)ccc2C(F)(F)F)C1 [Example 50, 1,5-anhydro-3-{[(2R,3aR,6aR)-3a-({(1S,4S)-5-[2,5-bis(trifluoromethyl)phenyl]-2,5-diazabicyclo[2.2.1]hept-2-yl}carbonyl)octahydropentalen-2-yl]amino}-2,3-dideoxy-4-O-methyl-D-erythro-pentitol]	78 nM	6 nM	25.9 nM	6 nM	–	–	–
CO[C@@H]1COCC[C@@H]1N(C)[C@@H]1C[C@H]2CCC[C@@]2(C(=O)N2C[C@@H]3C[C@H]2CN3c2ccc(Cl)c(C(F)(F)F)c2)C1 [Example 51, 1,5-anhydro-3-{[(2R,3aR,6aR)-3a-({(1S,4S)-5-[4-chloro-3-(trifluoromethyl)phenyl]-2,5-diazabicyclo[2.2.1]hept-2-yl}carbonyl)octahydropentalen-2-yl](methyl)amino}-2,3-dideoxy-4-O-methyl-D-erythro-pentitol]	21 nM	29 nM	–	11 nM	43.3 nM	–	–
CO[C@@H]1COCC[C@@H]1N(C)[C@@H]1C[C@H]2CCC[C@@]2(C(=O)N2C[C@@H]3C[C@H]2CN3c2cc(C(F)(F)F)ccc2C(F)(F)F)C1 [Example 52, 1,5-anhydro-3-{[(2R,3aR,6aR)-3a-({(1S,4S)-5-[2,5-bis(trifluoromethyl)phenyl]-2,5-diazabicyclo[2.2.1]hept-2-yl}carbonyl)octahydropentalen-2-yl](methyl)amino}-2,3-dideoxy-4-O-methyl-D-erythro-pentitol]	49 nM	38 nM	83.9 nM	21 nM	–	–	–
CO[C@@H]1COCC[C@@H]1N(C)[C@@H]1C[C@H]2CCC[C@@]2(C(=O)N2C[C@@H]3C[C@H]2CN3c2cc(C(F)(F)F)ccc2C#N)C1 [Example 53, 1,5-anhydro-3-{[(2R,3aR,6aR)-3a-({(1S,4S)-5-[2-cyano-5-(trifluoromethyl)phenyl]-2,5-diazabicyclo[2.2.1]hept-2-yl}carbonyl)octahydropentalen-2-yl](methyl)amino}-2,3-dideoxy-4-O-methyl-D-erythro-pentitol]	16 nM	26 nM	47.9 nM	12 nM	–	–	–
CO[C@@H]1COCC[C@@H]1N(C)[C@@H]1C[C@H]2CCC[C@@]2(C(=O)N2C[C@@H]3C[C@H]2CN3c2ccc(C#N)c(C(F)(F)F)c2)C1 [Example 56, 1,5-anhydro-3-{[(2R,3aR,6aR)-3a-({(1S,4S)-5-[4-cyano-3-(trifluoromethyl)phenyl]-2,5-diazabicyclo[2.2.1]hept-2-yl}carbonyl)octahydropentalen-2-yl](methyl)amino}-2,3-dideoxy-4-O-methyl-D-erythro-pentitol]	32 nM	9 nM	–	11 nM	46 nM	–	–
CO[C@@H]1COCC[C@@H]1N[C@@H]1C[C@H]2CCC[C@@]2(C(=O)N2C[C@@H]3C[C@H]2CN3C(=O)OC(C)(C)C)C1 [Example 60, 1,5-anhydro-3-{[(2R,3aR,6aR)-3a-{[(1S,4S)-5-(tert-butoxycarbonyl)-2,5-diazabicyclo[2.2.1]hept-2-yl]carbonyl}octahydropentalen-2-yl]amino}-2,3-dideoxy-4-O-methyl-D-erythro-pentitol]	552 nM	19 nM	328 nM	81 nM	–	–	–
C[C@H]1COCC[C@@H]1N[C@@H]1C[C@H]2CCC[C@@]2(C(=O)N2C[C@@H]3C[C@H]2CN3c2cc(C(F)(F)F)ccn2)C1 [Example 61, [(2R,3aR,6aR)-2-{[(3R,4S)-3-methyltetrahydro-2H-pyran-4-yl]amino}hexahydropentalen-3a(1H)-yl]{(1S,4S)-5-[4-(trifluoromethyl)pyridin-2-yl]-2,5-diazabicyclo[2.2.1]hept-2-yl}methanone]	69 nM	30 nM	–	25 nM	100 nM	–	–
C[C@@H]1COCC[C@@H]1N[C@@H]1C[C@H]2CCC[C@@]2(C(=O)N2C[C@@H]3C[C@H]2CN3c2cc(C(F)(F)F)ccn2)C1 [Example 63, [(2R,3aR,6aR)-2-{[(3S,4S)-3-methyltetrahydro-2H-pyran-4-yl]amino}hexahydropentalen-3a(1H)-yl]{(1S,4S)-5-[4-(trifluoromethyl)pyridin-2-yl]-2,5-diazabicyclo[2.2.1]hept-2-yl}methanone]	10 nM	6 nM	–	4 nM	17.9 nM	–	–
C[C@@H]1COCC[C@H]1N[C@@H]1C[C@H]2CCC[C@@]2(C(=O)N2C[C@@H]3C[C@H]2CN3c2cc(C(F)(F)F)ccn2)C1 [Example 64, [(2R,3aR,6aR)-2-{[(3S,4R)-3-methyltetrahydro-2H-pyran-4-yl]amino}hexahydropentalen-3a(1H)-yl]{(1S,4S)-5-[4-(trifluoromethyl)pyridin-2-yl]-2,5-diazabicyclo[2.2.1]hept-2-yl}methanone]	12 nM	9 nM	–	4 nM	16.5 nM	–	–
CC[C@@H]1COCC[C@@H]1N[C@@H]1C[C@H]2CCC[C@@]2(C(=O)N2C[C@@H]3C[C@H]2CN3c2cc(C(F)(F)F)ccn2)C1 [Example 65, [(2R,3aR,6aR)-2-{[(3S,4S)-3-ethyltetrahydro-2H-pyran-4-yl]amino}hexahydropentalen-3a(1H)-yl]{(1S,4S)-5-[4-(trifluoromethyl)pyridin-2-yl]-2,5-diazabicyclo[2.2.1]hept-2-yl}methanone]	6 nM	8 nM	28 nM	7 nM	–	–	–
CC[C@@H]1COCC[C@H]1N[C@@H]1C[C@H]2CCC[C@@]2(C(=O)N2C[C@@H]3C[C@H]2CN3c2cc(C(F)(F)F)ccn2)C1 [Example 66, [(2R,3aR,6aR)-2-{[(3S,4R)-3-ethyltetrahydro-2H-pyran-4-yl]amino}hexahydropentalen-3a(1H)-yl]{(1S,4S)-5-[4-(trifluoromethyl)pyridin-2-yl]-2,5-diazabicyclo[2.2.1]hept-2-yl}methanone]	13 nM	8 nM	–	11 nM	45.8 nM	–	–
CCO[C@H]1CN(C2CCC(O)(c3ccc4c(c3)OCO4)CC2)C[C@@H]1NC(=O)CNC(=O)c1cccc(C(F)(F)F)c1 (stereo partly shown) [INCB3344]	–	–	–	–	–	blocked	–
O=C1Nc2ccccc2C2(CCN(CCc3ccc(C(F)(F)F)cc3)CC2)O1 [RS102895]	–	–	–	–	–	–	reversed
